Assay results taken from patent US11186581B2, “2-(1,3-dimethyl-2,6-dioxo-1,2,3,6-tetrahydro-7H-purin-7-yl)-N-(6-(2-hydroxyphenyl)pyridazin-3-yl)acetamide as a Wnt pathway modulator” (Agency for Science, Technology and Research, priority 2017, dated 2021).
Where two headings read alike, the source gives them in different places.

Columns and labels:
[1] = Plasma pharmacokinetics after single intravenous and oral dose; assay type: in vivo, male BALB/c mice; details: male, BALB/c, mouse; for concentration at 24 hr: average of two values
Procedure: The objective of this study was to investigate the plasma pharmacokinetics of Compound 1 in male BALB/c mice following a single intravenous and oral dose administration. A group of eighteen male mice were divided in to two groups as Group 1 and Group 2 with nine mice in each group.
Animals in Group 1 were administered intravenously with Compound 1 solution formulation in 7.5% NMP, 5% Solutol HS-15 and 87.5% normal Saline at a dose of 1 mg/kg.
Animals in Group 2 were administered orally with Compound 1 solution formulation in 7.5% NMP, 5% Solutol HS-15 and 87.5% normal Saline at a dose of 5 mg/kg.
Blood samples (approximately 60 μL) were collected under light isoflurane anesthesia from retro orbital plexus at predose, 0.08, 0.25, 0.5, 1, 2, 4, 8 and 24 hr (IV) and predose, 0.25, 0.5, 1, 2, 4, 6, 8 and 24 hr (PO). During each sampling point, blood samples were collected in labeled pre-chilled tubes containing K2EDTA (20% K2EDTA solution) as an anticoagulant and protease inhibitor (10 μL of 10× solution/100 μL of blood). Low temperature was maintained till storage of plasma at −70° C. Plasma samples were separated by centrifugation of whole blood and stored below −70° C. until bioanalysis. All samples were processed for analysis by protein precipitation using acetonitrile (ACN) and analyzed with fit-for-purpose LC/MS/MS method (Lower limit of quantitation (LLOQ: 1.02 ng/mL). Pharmacokinetic parameters were calculated using the non-compartmental analysis tool of Phoenix WinNonlin® (Version 6.3). The overall pharmacokinetic parameters are summarized below:
The objective of the study is to determine the plasma pharmacokinetics of Compound 1 in male BALB/c mice following a single intravenous (1 mg/kg) and oral (5 mg/kg) administration in presence of a protease inhibitor.
(§1) A group of eighteen male mice were divided in to two groups as Group 1 and Group 2 with nine mice in each group. Animals in Group 1 were administered intravenously with Compound 1 solution formulation in 7.5% NMP, 5% Solutol HS-15 and 87.5% normal Saline at a dose of 1 mg/kg. Animals in Group 2 were administered orally with Compound 1 solution formulation in 7.5% NMP, 5% Solutol HS and 87.5% normal Saline at a dose of 5 mg/kg.
The dosing volume administered was 5 mL/kg for intravenous and 10 mL/kg for oral administration.
Blood samples (approximately 60 μL) were collected from retro-orbital plexus of three mice at each time point [predose, 0.08, 0.25, 0.5, 1, 2, 4, 8 and 24 hr (IV) and predose, 0.25, 0.5, 1, 2, 4, 6, 8 and 24 hr (PO)]. During each sampling point, blood samples were collected in labeled pre-chilled tubes containing K2EDTA (20% K2EDTA solution) as an anticoagulant and protease inhibitor (10 μL of 10× solution/100 μL of blood). Low temperature was maintained till storage of plasma at −70° C. Plasma was immediately harvested from the blood by centrifugation at 4000 rpm for 10 min at 4±2° C. and stored below −70° C. until bioanalysis. Preparation of protease inhibitor solution: One tablet of sigmaFAST (Product Code: 58820) was reconstituted into 10 mL of Milli-Q water to prepare 10× solution.
Concentrations of Compound 1 in mouse plasma samples were determined by fit-for-purpose LC-MS/MS method. The sample processing and extraction procedure, chromatographic and mass spectrometric conditions are provided below:
A 25 μL of study sample (DF was applied for few samples) or spiked plasma calibration standard was added to individual pre-labeled micro-centrifuge tubes followed by 100 μL of internal standard prepared in acetonitrile (Glipizide, 500 ng/mL) was added except for blank, where 100 μL of acetonitrile was added. Samples were vortexed for 5 minutes. Samples were centrifuged for 10 minutes at a speed of 4000 rpm at 4° C. Following centrifugation, 100 μL of clear supernatant was transferred in 96 well plates and analyzed using LC-MS/MS.
Non-Compartmental-Analysis tool of Phoenix WinNonlin® (Version 6.3) was used to assess the pharmacokinetic parameters. […]

[2] = Clinical observations after intravenous and oral dose administration; assay type: in vivo, male BALB/c mice; details: after IV 1 mg/kg and PO 5 mg/kg single dose
Procedure: as §1

[3] = plasma, iv, 1 mg/kg, IV 1 mg/kg, read-out: Plasma concentration, Mean
[4] = plasma, po, 5 mg/kg, PO 5 mg/kg, read-out: Plasma concentration, Mean
[5] = plasma, po, 5 mg/kg, PO 5 mg/kg, read-out: Plasma concentration, individual animals

Cn1c(=O)c2c(ncn2CC(=O)Nc2ccc(-c3ccccc3O)nn2)n(C)c1=O [Compound 1, 2-(1,3-dimethyl-2,6-dioxo-1,2,3,6-tetrahydro-7H-purin-7-yl)-N-(6-(2-hydroxyphenyl)pyridazin-3-yl)acetamide]
concentration at 4 hr [1, 3]: 34.7 ng/mL
concentration at 4 hr ([1]; plasma, iv, 1 mg/kg, IV 1 mg/kg, read-out: Plasma concentration, individual animals): 39.2 ng/mL
concentration at 8 hr [1, 3]: 14.5 ng/mL
concentration at 24 hr ([1]; plasma, iv, 1 mg/kg, IV 1 mg/kg): 1.23 ng/mL
concentration at 0.25 hr [1, 4]: 1860 ng/mL
concentration at 0.25 hr [1, 5]: 1690 ng/mL
concentration at 0.5 hr ([1]; plasma, po, 5 mg/kg, PO 5 mg/kg, 0.5 hr, read-out: Plasma concentration, Mean): 1710 ng/mL
concentration at 1 hr [1, 4]: 457 ng/mL
concentration at 1 hr [1, 5]: 462 ng/mL
concentration at 2 hr [1, 4]: 411 ng/mL
concentration at 2 hr [1, 5]: 535 ng/mL
concentration at 4 hr [1, 4]: 217 ng/mL
concentration at 6 hr [1, 4]: 91.8 ng/mL
concentration at 6 hr [1, 5]: 83.2 ng/mL
concentration at 8 hr [1, 4]: 45.8 ng/mL
concentration at 8 hr [1, 5]: 43 ng/mL
concentration at 24 hr ([1]; plasma, po, 5 mg/kg, PO 5 mg/kg): 1.8 ng/mL
half-life ([1]; plasma, IV 1 mg/kg, terminal elimination half-life, read-out: T1/2 (converted)): 4.24 h
Vd ([1]; plasma, IV 1 mg/kg, read-out: Vss): 1.2 L/kg
Tmax ([1]; plasma, PO 5 mg/kg): 0.25 h
bioavailability ([1]; plasma, PO 5 mg/kg vs IV 1 mg/kg, solution, from AUClast, read-out: % F (oral bioavailability)): 42%
half-life ([1]; plasma, PO 5 mg/kg, read-out: T1/2 (expressed as T1/2Z) (converted)): 3.26 h
AUC(0-inf) ([1]; IV 1 mg/kg, plasma): 1490 ng·h/mL
AUC(0-t) ([1]; IV 1 mg/kg, plasma): 1480 ng·h/mL
clearance ([1]; IV 1 mg/kg, plasma clearance): 11.2 mL/min/kg
C0 ([1]; IV 1 mg/kg, plasma, read-out: C0 (back extrapolated conc.)): 2750 ng/mL
AUC(0-inf) ([1]; PO 5 mg/kg, plasma): 3120 ng·h/mL
AUC(0-t) ([1]; PO 5 mg/kg, plasma): 3110 ng·h/mL
Cmax ([1]; PO 5 mg/kg, plasma): 1860 ng/mL
Clinical signs [2]: normal and without any clinical signs
